In ChEMBL document CHEMBL3988442, “University of Dundee, Small-Polar-MMV Screening Library” (2021):
Values joined by “and” are separate entries in the source; they are usually repeats but may differ in a detail not shown here. Identical values can stand only once.

Key:
[1] = microbe, parasite or virus in culture; conditions: Mycobacterium tuberculosis, 72 h, read-out: pIC50 (converted)
[2] = microbe, parasite or virus in culture; conditions: Mycobacterium tuberculosis, 96 h, read-out: pIC50 (converted)
Plasmodium falciparum [3] = test: Plasmodium falciparum sporozoite viability assay; assay type: functional, organism-based; conditions: for IC50: Plasmodium falciparum
Plasmodium falciparum [4] = test: Calibr Malaria Delayed Death Assay SOP; assay type: functional, organism-based; conditions: for IC50: Plasmodium falciparum
Schistosoma mansoni = test: High throughput screening of compounds against Schistosoma mansoni motility; assay type: functional; parameters: dose or concentration left out as unconfirmed
Leishmania donovani = test: Leishmania intramacrophage assay; assay type: functional, organism-based; conditions: Leishmania donovani
[5] = In vitro enzyme assay to detect hydrolysis of chlorophenol red-beta-D-[…] directly proportional to the number of Toxoplasma stably expressing beta-galactosidase; assay type: functional, organism-based, Toxoplasma gondii; conditions: Toxoplasma gondii
Histidine--tRNA ligase = molecular target: T1, Histidine--tRNA ligase (Leishmania infantum, UniProt A4I591); test: Leishmania infantum Histidine tRNA synthetase (LdHisRS); assay type: functional
T1 sequence (A4I591 whole entry): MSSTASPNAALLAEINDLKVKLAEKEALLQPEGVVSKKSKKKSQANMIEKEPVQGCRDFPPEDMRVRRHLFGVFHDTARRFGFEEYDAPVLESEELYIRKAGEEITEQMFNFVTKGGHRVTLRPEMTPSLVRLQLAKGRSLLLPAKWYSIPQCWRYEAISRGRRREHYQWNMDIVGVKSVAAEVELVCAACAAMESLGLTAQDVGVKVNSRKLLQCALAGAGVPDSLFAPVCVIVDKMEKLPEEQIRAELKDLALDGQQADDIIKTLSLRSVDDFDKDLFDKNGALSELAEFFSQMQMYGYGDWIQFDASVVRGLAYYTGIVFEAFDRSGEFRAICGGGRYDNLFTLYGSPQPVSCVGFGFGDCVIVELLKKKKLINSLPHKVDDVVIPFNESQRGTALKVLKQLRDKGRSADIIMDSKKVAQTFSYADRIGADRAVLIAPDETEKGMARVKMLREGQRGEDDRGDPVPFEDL

SMILES	pIC50 (Plasmodium falciparum [3])	IC50 (Plasmodium falciparum [3]) [nM]	also measured
Cc1ccsc1-c1cccc(-c2ccn(CC3CCNC3)n2)c1 (centres undefined)	5.798	2580	IC50 [1]: 23800 nM; IC50 [2]: 21300 nM
COC(=O)CSCc1noc(-c2ccc(C)cc2)n1	6.885 and 7.313		IC50 [1]: 24400 nM; IC50 [2]: > 50100 nM
CC(C)(C)n1cc(C2=CCN(CCc3ccccc3)CC2)cn1	5.875	1530	pIC50 (Plasmodium falciparum [4]): 6.257; IC50 (Plasmodium falciparum [4]): 571 nM; Percent Effect (Schistosoma mansoni): 26.35%
c1cnc(-c2nc(CN3CCN(CC4CC4)CC3)cs2)nc1	5.511	2260	IC50 (Leishmania donovani): > 50100 nM
CN1CCOC(C(=O)Nc2ccc3c(c2)nc(C(C)(C)C)n3C)C1 (centres undefined)	7.552	16.9	
O=C(Cc1ccc2c(c1)OCCO2)N1CCCC(n2cccn2)C1 (centres undefined)	< 4.98 and 5.311		
O=C(Nc1ccc(Cl)cn1)c1nn(C2CCS(=O)(=O)C2)c2c1CCCC2 (centres undefined)	5.512 and 5.897		
CN(C)CC(C)(O)CNC(=O)Nc1sc2ccccc2c1Cl (centres undefined)	5.506	2690	
CCC1CN(C(=O)c2ccc(O)cn2)CCC(=O)N1Cc1ccccc1 (centres undefined)	5.529 and 5.955		
O=C(CCn1cccn1)NS(=O)(=O)N1CCCc2ccccc21	6.348	495	
COC(=O)CSCc1noc(-c2ccc(Cl)cc2)n1	6.573	454	IC50 [1]: > 50100 nM; IC50 [2]: > 50100 nM
CC(C)c1n[nH]c(C(=O)Nc2ccnn2C(C)C)c1Br	6.017	970	
CC/N=c1\nc(NCC)nc2n1C(O)(Nc1ccc(C)cc1C)CS2 (centres undefined)	5.511	2830	
CN1CCOC(CNC(=O)CCCOc2ccccc2F)C1 (centres undefined)	5.757 and 6.214		
CN1CCCC1CCn1ccnc1-c1nc(-c2ccccc2)no1 (centres undefined)	6.882	71.6	
Cc1ccnc(NC(=O)c2ccc(Cl)o2)c1	7.621 and 7.995		
COCc1noc(-c2ccc(N3CCC[C@H]3CO)nc2)n1	7.269	60.2	
CSc1ccccc1C(=O)Nc1ccc(OC2CCN(C)CC2)cc1	6.337 and 5.999		
CC(C)(C)n1ncc2c(=O)n(CC(=O)NCc3ccccc3Cl)cnc21	7.103	103	
CC(=O)Nc1ncc(S(=O)(=O)Nc2ccc3c(c2)OCCO3)s1	6.905	144	IC50 [5]: > 50100 nM
c1cncc(OCc2nc(C3CC3)nn2-c2ccc3c(c2)OCCO3)c1	5.428	3840	
COc1cccc(-c2noc(C3CCN(CC(N)=O)C3)n2)c1 (centres undefined)		> 10500	
CO[C@H]1C[C@@H](O)C12CCN(C(=O)CCCOc1ccccc1)CC2	6.089 and 6.557		
c1ccc(-c2noc(CN3CCc4cncnc4C3)n2)nc1	5.93 and 5.587		
CC(=O)N1Cc2ccccc2CC1C(=O)Nc1cc(C)ccn1 (centres undefined)	7.317	41.2	
Cc1c(F)cc(C(=O)O)cc1S(=O)(=O)Nc1ccc2c(c1)OCCO2	5.599	3790	

SMILES	pIC50 (Plasmodium falciparum [3])	IC50 (Plasmodium falciparum [3]) [nM]	also measured
CSc1cc2c(cc1NC(=O)NCC1CCOC1)OCCO2 (centres undefined)	6.419	218	
CCn1cc(NC(=O)Nc2ccc3c(c2)OCCO3)cn1	7.305 and 6.856		
Cc1cccc(Nc2cc(C3CCCN(CC(N)=O)C3)ccn2)n1.O=CO.O=CO (centres undefined)	6.742	186	
Cc1nc(COc2ccc(OC3CCCCNC3=O)cc2)oc1C (centres undefined)	7.451	39	
CC(C)C(=O)N1CCN(Cc2csc(-c3ncccn3)n2)CC1	5.96	1420	IC50 (Leishmania donovani): > 50100 nM
COC(=O)CCCNC(=O)N1CCc2c([nH]c3ccc(Cl)cc23)C1	5.609 and 6.035		
CN(C)CCNC(=O)C1Cc2nc(-c3ccccc3)sc2N1CC1CC1 (centres undefined)		3590	IC50 [1]: > 50100 nM; IC50 [2]: > 50100 nM
CC(C)(C)c1ncc(C(=O)NCCSc2ccccn2)c(O)n1	7.35	63.2	
CN1CCN(C2CCN(c3cnc4ccccc4n3)CC2)C1=O	7.03 and 7.343		
CSc1ccc(-c2nc(CN3CCC(NC(C)=O)C3)c(C)o2)cc1 (centres undefined)	6.077	533	
Cc1cn2c(n1)C(CNCC1=Cc3cc(Cl)ccc3OC1)CCC2 (centres undefined)	5.932	908	pIC50 (Plasmodium falciparum [4]): 5.847; IC50 (Plasmodium falciparum [4]): 1660 nM
c1cc(-c2noc(CN3CCc4c(ncn4C4CC4)C3)n2)cs1	5.546	2470	
Cc1cn2c(n1)C(CNCC1=Cc3ccccc3OC1)CCC2 (centres undefined)	7.385	62.3	pIC50 (Plasmodium falciparum [4]): 5.983; IC50 (Plasmodium falciparum [4]): 903 nM
COc1ccc(-c2ccc(C3CNCCO3)nc2)cc1.Cl (centres undefined)	7.404	73	pIC50 (Plasmodium falciparum [4]): 6.456; IC50 (Plasmodium falciparum [4]): 190 nM
NC(=O)C1CN(c2ccc3cc(Br)ccc3n2)CCO1 (centres undefined)	7.699 and 7.366		
c1ccc2sc(CN3CCCC3c3noc(C4CC4)n3)nc2c1 (centres undefined)	5.79 and 6.107		
COc1ccc2cc(C3CN(C(=O)N(C)C)CCO3)ccc2c1 (centres undefined)	7.993	14.9	
Cl.Clc1ccc(-c2ccc(C3CNCCO3)nc2)cc1 (centres undefined)		75	pIC50 (Plasmodium falciparum [4]): 6.505; IC50 (Plasmodium falciparum [4]): 433 nM
Cc1cc(C)n(CC2CN(Cc3nc4ccccc4s3)CCO2)n1 (centres undefined)	6.064	1720	
CC(C)c1nc2c(n1C)CCN(Cc1nc(-c3ccsc3)no1)C2	5.081 and 5.405		
CC(C)(C)n1ncc2c1CCCC2NCc1ccc2c(c1)OCCO2 (centres undefined)	6.564	411	
C(=C\c1ccc(CN2CCCC2)cn1)/c1ccccc1	7.171	113	
CC(=O)Nc1nc(C(=O)N2CCCC(n3cncn3)C2)cs1 (centres undefined)	5.727	3370	
CCc1noc(CN(Cc2ccc3c(c2)OCO3)C2CCCC2)n1	5.474 and 5.085		
O=C(Nc1ccc(N2CCCC2)nc1)N1CCc2ccccc2C1	5.522	2030	
O=C(Nc1cccc(Cl)c1)c1nn(C2CCS(=O)(=O)C2)c2c1CCCC2 (centres undefined)	5.123	8150	

SMILES	pIC50 (Plasmodium falciparum [3])	IC50 (Plasmodium falciparum [3]) [nM]	also measured
COCCNC(=O)Nc1cc2c(cc1SC)OCCO2	6.283	555	
c1ccc2sc(CN3CCOC(Cn4cncn4)C3)nc2c1 (centres undefined)	6.123	621	
Cc1nnc(CN(C)Cc2nc3c(s2)CCCC3)o1	5.52	3560	
FC(F)(F)Oc1ccc(-c2noc([C@@H]3Cc4nc[nH]c4CN3)n2)cc1	6.357	221	IC50 [1]: > 50100 nM; IC50 [2]: > 50100 nM
CC1CCCN(Cc2csc(-c3ncccn3)n2)CC1 (centres undefined)	5.365	4800	
c1ccc2sc(CN3CCOC(Cn4cccn4)C3)nc2c1 (centres undefined)	6.078 and 6.413		
CCC(=O)NC1CCCN(C(=O)Nc2cc(-c3ccccc3)on2)C1 (centres undefined)	6.751	187	
O=C(Nc1cccnc1)C1Cc2nc(-c3ccsc3)sc2N1CC1CC1.O=C(O)C(F)(F)F (centres undefined)	5.393	3000	IC50 (Histidine--tRNA ligase): 27400 nM and 35200 nM
Cc1cncc(NC(=O)c2ccc(CN3CC[C@H](O)C3)cc2)c1	6.801	80.2	
COC(=O)CC1CCN(C(=O)Nc2ccc(-c3ccn[nH]3)cc2)C1 (centres undefined)	6.226	436	
CC(C)(C)n1ncc2c(=O)n(CC(=O)NCc3ccccc3)cnc21	7.194	43	
OC1CCN(c2ccc(CNc3nc4ccccc4s3)cc2F)CC1	7.297 and 6.882		
CCN1CCN(Cc2coc(-c3cccc(F)c3)n2)CC1	6.19	800	
CNC(=O)CCC(=O)N1CCOC(c2ccc3cc(OC)ccc3c2)C1 (centres undefined)	7.215	83	
c1cc(OCc2ccc3c(c2)OCO3)ccc1CNC1CC1		> 10500	
CCn1ncc2c1CCCC2NCc1cccc2c1OCO2 (centres undefined)	5.451	4370	
Cn1c(-c2cc3n(n2)CCCN(CC(=O)O)C3)nc2ccccc21	5.921 and 6.257		
Cc1ccc(-c2ccc(C3CNCCO3)nc2)cc1.Cl (centres undefined)	7.716	23.1	pIC50 (Plasmodium falciparum [4]): 6.712; IC50 (Plasmodium falciparum [4]): 108 nM
COc1cc(F)c(NCc2nc3ccccc3n2C)cc1OC		260	IC50 (Histidine--tRNA ligase): 59700 nM and 57600 nM
CSc1cc2c(cc1NC(=O)NCCn1ccnc1)OCCO2	6.776	126	
Cn1cc(CCC(=O)NS(=O)(=O)N2CCCc3ccccc32)cn1	6.583	157	
O=C(NCCNc1cc(N2CCCC2)cnn1)Nc1ccccc1F	6.092	819	
COc1ccc2cc(C3CN(C(=O)CN4CCCC4)CCO3)ccc2c1 (centres undefined)	5.408	7630	
CC(NC(=O)c1cc(C(C)C)[nH]n1)C(=O)Nc1ccccc1 (centres undefined)	7.217	48.9	
Cc1csc(NC(=O)c2cnc(C3CCCN(C)C3)cn2)n1 (centres undefined)	5.674 and 6.096		
COc1ccc2cc(C3CN(C(=O)CCNC(C)=O)CCO3)ccc2c1 (centres undefined)	7.142	48.6	
